The test system of experiment [1] is NF-κB in MCF-7 cells. Kind of experiment: Anti-NF-κB antibody flow cytometry, MCF-7. The experiment is classed as cell-based, human. The settings on record: 24 h, control 97.2 ± 0.6%. Here is the method:
To evaluate the molecular mechanism of induction of apoptosis of tested compounds, the level of p53, NF-κB, mTOR, Bax, and beclin-1 was measured using appropriate antibody according to the manufacturer’s instruction. In brief, tryspinised cells were centrifuged, then supernatant was discarded, and cells were suspended in 4% FA (formaldehyde). Prepared samples were incubated 15 min at RT. Following incubation, the 2.5 mL PBS was added to each sample and centrifuged. Then, supernatant was discarded, and cells were resuspended in 90% ice-cold methanol to perform permeabilisation and left for 1 h in ice. To remove methanol, cells were rinsed with excess PBS by centrifugation. Following centrifugation, the supernatant was discarded. Then, cells were resuspended in 100 µL of appropriate diluted (1:100 in PBS) antibody conjugate (p53 (7F5) Rabbit mAb – Alexa Fluor 488 Conjugate #5429 Cell Signalling Technology, Danvers, MA; NF-κB p65 (D14E12) XP Rabbit mAb – Alexa Fluor 647 Conjugate #8801 Cell Signalling Technology, Danvers, MA; mTOR (7C10) Rabbit mAB – Alexa Fluor 647 #5048 Cell Signalling Technology, Danvers, MA; FITC Anti-Bax antibody (T22-A) #ab139543, Abcam, Cambridge, UK) and incubated 1 h in the dark at RT. Afterwards, cells were washed by centrifugation in 2 mL of incubation buffer. Finally, supernatant was removed and 300 µL PBS was added to each sample and pipetted. […]
A general note: Flow cytometry measures light scatter and fluorescence of single cells or particles in a stream.

Experiment [2] relates to ROS in MCF-7 cells. Kind of experiment: Total ROS activity, flow cytometry, MCF-7. It is filed as cell-based, human. As to conditions: for cells that generated ROS: 24 h. Here is the method: In brief, cells were washed two times with cold PBS solution and incubated in a solution of ROS Green dye in Assay Buffer and incubated for 1 h in optimal cell growth parameters, protected from light. After incubation, cells were washed with assay buffer. Subsequently, fluorescence emission intensities at 490 nm excitation and 520 nm emission were recorded in 500 μL assay buffer using flow cytometer BD FACSCanto II flow cytometer and FACSDiva software (BD Biosciences Systems, San Jose, CA).

For `Cc1nn(-c2ccc(S(=O)(=O)N[C@@H](CO)Cc3ccccc3)cc2)c2nn3nnnc3nc12` [Compound 3b, (R)-N-(1-hydroxy-3-phenylpropan-2-yl)-4-(7-methyl-5H-pyrazolo[4,3-e]tetrazolo[1,5-b][1,2,4]triazin-6-yl)benzenesulfonamide], the “cells with active NF-κB” value in experiment [1] (MCF-7, 0.25 µM) stood at 25.5 ± 4.5%; in experiment [1] (MCF-7, 0.5 µM), 19.8 ± 4.4%. The “cells that generated ROS” value in experiment [2] (MCF-7, 0.25 µM) came to 19.8 ± 2.2%; in experiment [2] (MCF-7, 0.5 µM), 27.5 ± 1.3%. The “increase of ROS level compared to control” value in experiment [2] (MCF-7, 0.5 µM) amounted to 12 times.

Source of the values: PMC11073428, “The activity of pyrazolo[4,3-e][1,2,4]triazine and pyrazolo[4,3-e]tetrazolo[1,5-b][1,2,4]triazine sulphonamide derivatives in monolayer and spheroid breast cancer cell cultures” (Journal of Enzyme Inhibition and Medicinal Chemistry, 2024).
